This is an account of results in patent US11318137B2, “Quinazoline compounds as modulators of Ras signaling” (VANDERBILT UNIVERSITY, priority 2017, dated 2022).

The target of test [1] is T1, SOS-mediated nucleotide exchange on Ras (Homo sapiens, UniProt Q07889).
T1 sequence (Q07889 1-1333): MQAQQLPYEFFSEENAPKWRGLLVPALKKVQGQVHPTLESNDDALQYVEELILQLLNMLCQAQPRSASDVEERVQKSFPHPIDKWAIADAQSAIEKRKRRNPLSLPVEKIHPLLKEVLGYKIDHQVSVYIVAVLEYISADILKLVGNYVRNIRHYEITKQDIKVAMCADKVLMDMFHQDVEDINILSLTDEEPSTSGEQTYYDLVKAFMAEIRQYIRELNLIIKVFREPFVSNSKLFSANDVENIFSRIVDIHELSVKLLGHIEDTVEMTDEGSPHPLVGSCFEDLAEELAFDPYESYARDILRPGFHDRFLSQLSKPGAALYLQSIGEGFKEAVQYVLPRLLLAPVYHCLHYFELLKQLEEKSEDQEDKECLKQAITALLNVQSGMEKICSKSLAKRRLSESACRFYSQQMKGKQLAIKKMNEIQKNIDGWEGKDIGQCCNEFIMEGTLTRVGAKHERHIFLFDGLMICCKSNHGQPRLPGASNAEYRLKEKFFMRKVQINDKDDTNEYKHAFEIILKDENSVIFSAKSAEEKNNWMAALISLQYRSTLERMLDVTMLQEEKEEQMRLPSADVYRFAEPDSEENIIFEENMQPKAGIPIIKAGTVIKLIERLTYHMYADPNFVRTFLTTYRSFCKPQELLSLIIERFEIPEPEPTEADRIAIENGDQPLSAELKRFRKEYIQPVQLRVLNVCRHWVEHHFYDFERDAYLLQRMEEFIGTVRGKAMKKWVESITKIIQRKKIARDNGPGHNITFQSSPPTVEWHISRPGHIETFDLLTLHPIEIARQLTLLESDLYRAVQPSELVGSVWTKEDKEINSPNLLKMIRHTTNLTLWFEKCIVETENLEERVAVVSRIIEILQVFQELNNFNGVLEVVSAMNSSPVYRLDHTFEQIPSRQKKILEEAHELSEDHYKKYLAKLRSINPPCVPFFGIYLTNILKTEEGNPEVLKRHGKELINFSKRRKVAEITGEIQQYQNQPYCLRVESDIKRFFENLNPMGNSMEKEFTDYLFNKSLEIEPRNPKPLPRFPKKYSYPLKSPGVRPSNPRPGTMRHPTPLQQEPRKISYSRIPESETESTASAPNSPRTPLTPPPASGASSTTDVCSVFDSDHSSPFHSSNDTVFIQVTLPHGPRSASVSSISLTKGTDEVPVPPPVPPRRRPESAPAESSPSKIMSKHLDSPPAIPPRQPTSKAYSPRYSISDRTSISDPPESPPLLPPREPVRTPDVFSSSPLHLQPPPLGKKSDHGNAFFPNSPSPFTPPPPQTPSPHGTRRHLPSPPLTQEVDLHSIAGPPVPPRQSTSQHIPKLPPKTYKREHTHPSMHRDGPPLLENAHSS
Description: SOS-mediated nucleotide exchange on Ras (BODIPY-GDP fluorescence). In kind it is biochemical. To be noted: Ras loaded with BODIPY-GDP, GTP and SOS added; EC50 from derived exchange rates. In outline: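 Compound, then GTP and SOS, were added to buffered Ras preloaded with BODIPY-GDP, and the fluorescence change from labeled GDP being exchanged for GTP was followed over time. Rates came from single-exponential fits, and EC50 from a four-parameter fit of mean rate against compound concentration.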

The next test concerns the target T2, Son of Sevenless (SOS) (Homo sapiens, UniProt Q07889).
T2 sequence (Q07889 564-1049 limits assumed): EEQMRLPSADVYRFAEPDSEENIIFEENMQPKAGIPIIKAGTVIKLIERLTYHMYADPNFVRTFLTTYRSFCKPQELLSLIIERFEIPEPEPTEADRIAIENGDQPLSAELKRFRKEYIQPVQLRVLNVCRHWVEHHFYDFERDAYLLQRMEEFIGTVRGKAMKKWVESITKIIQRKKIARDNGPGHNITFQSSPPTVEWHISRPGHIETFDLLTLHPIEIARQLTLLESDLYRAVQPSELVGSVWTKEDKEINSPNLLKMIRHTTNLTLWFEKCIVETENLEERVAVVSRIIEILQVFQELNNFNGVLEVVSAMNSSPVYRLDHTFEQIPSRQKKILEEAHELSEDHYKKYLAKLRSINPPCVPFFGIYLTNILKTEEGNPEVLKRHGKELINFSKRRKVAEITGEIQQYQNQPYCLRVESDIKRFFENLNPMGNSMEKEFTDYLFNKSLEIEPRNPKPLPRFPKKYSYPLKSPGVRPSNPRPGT
Description: Binding to SOS, fluorescence polarization anisotropy (FPA) displacement of FITC-conjugated probe. To be noted: binding affinity calculated from IC50 of FITC-probe displacement, read-out: Binding affinities (binding affinity to SOS). The method, boiled down:
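FITC-labelled probe incubated with SOS in buffer; displacement by test compound across a dose range read as fluorescence anisotropy change. IC50 from four-parameter variable-slope fit, binding affinity calculated from IC50.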

Structures are written as SMILES.

One may read the EC50 as the concentration needed to bring the measured effect to its halfway point.

As to `C[C@@H](Nc1nc(Nc2ccc(F)c(Cl)c2)nc2c(CC3CNC3)cccc12)C1CC1` [Example 113, (R)-8-(azetidin-3-ylmethyl)-N^2-(3-chloro-4-fluorophenyl)-N^4-(1-cyclopropylethyl)quinazoline-2,4-diamine], the EC50 in test [1] was in the range of 1 to 5 µM. For the same compound, on Son of Sevenless (SOS), the Ki is 1000 to 5000 nM.

The compound `C[C@@H](Nc1nc(Nc2ccc(F)c(Cl)c2)nc2c(CC3CC(N)C3)cccc12)C1CC1` (stereo partly drawn) [Example 114, (R)-8-((3-aminocyclobutyl)methyl)-N^2-(3-chloro-4-fluorophenyl)-N^4-(1-cyclopropylethyl)quinazoline-2,4-diamine] registered an EC50 in test [1] of 1 to 5 µM. Moreover, the Ki on Son of Sevenless (SOS) is 1000 to 5000 nM.

Consider `C=CC[C@@H](Nc1nc(Nc2ccc(F)c(Cl)c2)nc2c(C3=CCNCC3)cccc12)C1CC1` [Example 115, (R)—N^2-(3-chloro-4-fluorophenyl)-N^4-(1-cyclopropylbut-3-en-1-yl)-8-(1,2,3,6-tetrahydropyridin-4-yl)quinazoline-2,4-diamine], for which the EC50 in test [1] was in the range of 1 to 5 µM. The Ki on Son of Sevenless (SOS) was 1000 to 5000 nM.

Compound `C=CC[C@@H](Nc1nc(Nc2cc(F)cc(F)c2)nc2c(C3=CCNCC3)cccc12)C1CC1` [Example 116, (R)—N^4-(1-cyclopropylbut-3-en-1-yl)-N^2-(3,5-difluorophenyl)-8-(1,2,3,6-tetrahydropyridin-4-yl)quinazoline-2,4-diamine] showed an EC50 in test [1] of 1 to 5 µM. In addition, at Son of Sevenless (SOS), the Ki was below 1000 nM.

As for `C=CC[C@@H](Nc1nc(NCC2CCCCC2)nc2c(C3=CCNCC3)cccc12)C1CC1` [Example 117, (R)—N^2-(cyclohexylmethyl)-N^4-(1-cyclopropylbut-3-en-1-yl)-8-(1,2,3,6-tetrahydropyridin-4-yl)quinazoline-2,4-diamine], the 50% effective concentration (EC50) in test [1] fell in the range of 1 to 5 µM. Further, the Ki at Son of Sevenless (SOS) was below 1000 nM.

As to `Cc1cc(F)cc(Nc2nc(N[C@H](C)C3CC3)c3cccc(CCN)c3n2)c1` [Example 118, (R)-8-(2-aminoethyl)-N^4-(1-cyclopropylethyl)-N^2-(3-fluoro-5-methylphenyl)quinazoline-2,4-diamine], the EC50 in test [1] is 1 to 5 µM. In addition, the Ki at Son of Sevenless (SOS) was 1000 to 5000 nM.

With `C[C@@H](Nc1nc(NCc2cccc(Cl)c2F)nc2c(CCN)cccc12)C1CC1` [Example 119, (R)-8-(2-aminoethyl)-N^2-(3-chloro-2-fluorobenzyl)-N^4-(1-cyclopropylethyl)quinazoline-2,4-diamine], the EC50 in test [1] lay within 1 to 5 µM. Further, the Ki at Son of Sevenless (SOS) was 1000 to 5000 nM.

On to `C[C@@H](Nc1nc(Nc2ccc(F)c(Cl)c2)nc2c(C3=CCN(C)CC3)cccc12)C1CC1` [Example 120, (R)—N^2-(3-chloro-4-fluorophenyl)-N^4-(1-cyclopropylethyl)-8-(1-methyl-1,2,3,6-tetrahydropyridin-4-yl)quinazoline-2,4-diamine], for which the concentration giving a half-maximal response (EC50) in test [1] is 5 to 30 µM. Further, the Ki at Son of Sevenless (SOS) is 1000 to 5000 nM.

For the compound `C[C@@H](Nc1nc(NCC2CCCCC2)nc2c(C3=CCN(C)CC3)cccc12)C1CC1` [Example 121, (R)—N^2-(cyclohexylmethyl)-N^4-(1-cyclopropylethyl)-8-(1-methyl-1,2,3,6-tetrahydropyridin-4-yl)quinazoline-2,4-diamine], the EC50 in test [1] is 1 to 5 µM. Besides, the Ki at Son of Sevenless (SOS) is 1000 to 5000 nM.

With `C[C@@H](Nc1nc(Nc2ccc(F)c(Cl)c2)nc2c(C3=CCOCC3)cccc12)C1CC1` [Example 122, (R)—N^2-(3-chloro-4-fluorophenyl)-N^4-(1-cyclopropylethyl)-8-(3,6-dihydro-2H-pyran-4-yl)quinazoline-2,4-diamine], in test [1], the concentration giving a half-maximal response (EC50) was above 30 µM. In addition, on Son of Sevenless (SOS), the Ki is above 5000 nM.

`CCOCCc1cccc2c(N[C@H](C)C3CC3)nc(Nc3ccc(F)c(Cl)c3)nc12` [Example 123, (R)—N^2-(3-chloro-4-fluorophenyl)-N^4-(1-cyclopropylethyl)-8-(2-ethoxyethyl)quinazoline-2,4-diamine]: the EC50 in test [1] was above 30 µM. For the same compound, the Ki at Son of Sevenless (SOS) was above 5000 nM.

On to `C[C@@H](Nc1nc(Nc2ccc(F)c(Cl)c2)nc2c(N3CCOCC3)cccc12)C1CC1` [Example 124, (R)—N^2-(3-chloro-4-fluorophenyl)-N^4-(1-cyclopropylethyl)-8-morpholinoquinazoline-2,4-diamine], for which, in test [1], the concentration giving a half-maximal response (EC50) lay in the range of 5 to 30 µM. In addition, on Son of Sevenless (SOS), the Ki was above 5000 nM.

`CC[C@@H](Nc1nc(NCC2CCCCC2)nc2c(C3=CCNCC3)cccc12)C1CC1` [Example 125, (R)—N^2-(cyclohexylmethyl)-N^4-(1-cyclopropylpropyl)-8-(1,2,3,6-tetrahydropyridin-4-yl)quinazoline-2,4-diamine] yielded a 50% effective concentration (EC50) in test [1] below 1 µM. The Ki on Son of Sevenless (SOS) is below 1000 nM.

In test [1], `CC[C@@H](Nc1nc(Nc2cc(C)cc(F)c2)nc2c(C3=CCNCC3)cccc12)C1CC1` [Example 126, (R)—N^4-(1-cyclopropylpropyl)-N^2-(3-fluoro-5-methylphenyl)-8-(1,2,3,6-tetrahydropyridin-4-yl)quinazoline-2,4-diamine] yielded a half-maximal effective concentration (EC50) of 1 to 5 µM. In addition, the Ki on Son of Sevenless (SOS) is below 1000 nM.

As for `CC[C@@H](Nc1nc(NCC2CCCCC2)nc2c(CCN)cccc12)C1CC1` [Example 127, (R)-8-(2-aminoethyl)-N^2-(cyclohexylmethyl)-N^4-(1-cyclopropylpropyl)quinazoline-2,4-diamine], in test [1], the EC50 was 1 to 5 µM. Further, the Ki at Son of Sevenless (SOS) is below 1000 nM.

`CC[C@@H](Nc1nc(Nc2cc(C)cc(F)c2)nc2c(CCN)cccc12)C1CC1` [Example 128, (R)-8-(2-aminoethyl)-N^4-(1-cyclopropylpropyl)-N^2-(3-fluoro-5-methylphenyl)quinazoline-2,4-diamine]: in test [1], the EC50 fell in the range of 1 to 5 µM. Moreover, the Ki on Son of Sevenless (SOS) is 1000 to 5000 nM.

`C[C@@H](Nc1nc(Nc2ccc(F)c(Cl)c2)nc2c(CN)cccc12)C(C)(C)C` [Example 130, (R)-8-(aminomethyl)-N^2-(3-chloro-4-fluorophenyl)-N^4-(3,3-dimethylbutan-2-yl)quinazoline-2,4-diamine]: in test [1], the EC50 lay within 5 to 30 µM. The Ki at Son of Sevenless (SOS) was above 5000 nM.

Compound `Cc1cc(F)cc(Nc2nc(N[C@H](C)C(C)(C)C)c3cccc(CN)c3n2)c1` [Example 131, (R)-8-(aminomethyl)-N^4-(3,3-dimethylbutan-2-yl)-N^2-(3-fluoro-5-methylphenyl)quinazoline-2,4-diamine] gave an EC50 in test [1] of 5 to 30 µM. Moreover, the Ki at Son of Sevenless (SOS) was above 5000 nM.

In test [1], `C[C@@H](Nc1nc(Nc2ccc(F)c(Cl)c2)nc2c(CN)cccc12)c1cccs1` [Example 132, (R)-8-(aminomethyl)-N^2-(3-chloro-4-fluorophenyl)-N^4-(1-(thiophen-2-yl)ethyl)quinazoline-2,4-diamine] yielded an EC50 of 5 to 30 µM. In addition, on Son of Sevenless (SOS), the Ki is 1000 to 5000 nM.

`C[C@@H](Nc1nc(NCc2cccc(Cl)c2F)nc2c(C3=CCNCC3)cccc12)c1cccs1` [Example 133, (R)—N^2-(3-chloro-2-fluorobenzyl)-8-(1,2,3,6-tetrahydropyridin-4-yl)-N^4-(1-(thiophen-2-yl)ethyl)quinazoline-2,4-diamine] registered an EC50 in test [1] of 5 to 30 µM. In addition, on Son of Sevenless (SOS), the Ki is 1000 to 5000 nM.
